Measured values published in paper PMC8583042, “New Hybrid Compounds Combining Fragments of Usnic Acid and Thioether Are Inhibitors of Human Enzymes TDP1, TDP2 and PARP1” (International Journal of Molecular Sciences, 2021).

Tests used:
HeLa cells = assay: Cytotoxicity of the combination of 10a and topotecan on HeLa cells; format: cell-based, human
Description: TDP1 is able to cleave the TOP1–DNA complex, thus preventing the action of Tpc and decreasing the efficiency of this clinically used drug. The inhibition of TDP1 activity can increase the efficiency of Tpc. Next, we checked the cytotoxic effect of the combination of Tpc and examined the TDP1 inhibitors compared to Tpc alone on HeLa cells and HEK293 cells.
We observed the suppressed cell growth in the joint presence of the TDP1 inhibitor and Tpc on HeLa cells compared to Tpc alone (Figure 5). We observed the synergistic effect both when we titrated 10a with addition of fixed Tpc (1 μM or 2 μM) and vice versa when we titrated Tpc with addition of fixed 10a (5 μM). […] The CC50 value of Tpc decreased from 2 μM (only Tpc) to 0.7 μM (Tpc with 5 μM 10a).
Cytotoxicity of the compounds was examined against human cell lines HEK293A (human embryonic kidney)—WT, TDP1 deficient (Tdp1-/-), PARP1 deficient (PARP1-/-), and HeLa (cervical cancer) using an EZ4U colorimetric test (Biomedica, Vienna, Austria). The HEK293A cell line was obtained from Thermo Fisher Scientific (Waltham, MA, USA), and the HeLa cell line was obtained from the Russian Cell Culture Collection (RCCC) Institute of Cytology RAS, St. Petersburg, Russia. The cells were grown in DMEM/F12 medium (Gibco, Thermo Fisher Scientific, Waltham, MA, USA), with 1x GlutaMAX (Gibco, Thermo Fisher Scientific, Waltham, MA, USA), 50 IU/mL penicillin, 50 μg/mL streptomycin (MP Biomedicals), and in the presence of 10% fetal bovine serum (Biolot, Saint-Petersburg, Russia) in a 5% CO2 atmosphere. Cells were grown in the presence of 1% DMSO in the control wells. After the formation of a 30–50% monolayer, the tested compounds were added to the medium, and the cell culture was monitored for 3 days. The values were normalized to their own control in each case. At least three independent experiments were carried out. […] The compound concentration that caused 50% cell growth inhibition was determined using OriginPro 8.6.0 software (OriginLab, Northampton, MA, USA). […]

[1] = system: HEK293 wild type and TDP1-/- and PARP1-/- cell lines; assay: Joint action of 10a and Tpc on HEK293 wild type, TDP1-/- and PARP1-/- cells; format: cell-based, human; conditions: data not shown
Description: (§1) In our previous works, we checked the cytotoxic effect of Tpc and the TDP1 inhibitors—monoterpene 3-carene-derived compounds [48, 49] and UA combined with monoterpenoids, measured separately and jointly with Tpc—using a panel of HEK293FT and HEK293A Tdp1 knockout isogenic clones. […] The data on the HEK293FT mutants were of low reproducibility, which is why we decided to change the basic cell line to HEK293A [49]. In this work, we created new PARP1-/- HEK293A cells using the CRISPR–Cas9 approach (Figure S27). […] We checked the intrinsic cytotoxicity of the leader compound (10a) on the HEK293 wild type and TDP1-/- and PARP1-/- cell lines using a colorimetric test (Figure 6). […] There was no difference between the WT and mutant cells.
(§2) Cytotoxicity of the compounds was examined against human cell lines HEK293A (human embryonic kidney)—WT, TDP1 deficient (Tdp1-/-), PARP1 deficient (PARP1-/-), and HeLa (cervical cancer) using an EZ4U colorimetric test (Biomedica, Vienna, Austria). […] After the formation of a 30–50% monolayer, the tested compounds were added to the medium, and the cell culture was monitored for 3 days. […] The compound concentration that caused 50% cell growth inhibition was determined using OriginPro 8.6.0 software (OriginLab, Northampton, MA, USA). […]

[2] = EZ4U colorimetric cytotoxicity test, HeLa; format: cell-based, human; conditions: human, HeLa cells; intrinsic cytotoxicity, compound alone, 3 days
Description: (§3) The low intrinsic cytotoxicity of the additional drug component in the clinically used anticancer cocktails with traditional drugs is very important for treatment. This approach in chemotherapy can reduce the potential resulting toxic load on the body in the case of a combined action of these inhibitors on the activity of several targets. […] The effects of the tested compounds on cell survival are shown on Figure 4 and the CC50 values for three cell lines are shown in Table 1. The intrinsic cytotoxicity of a number of the studied compounds is quite high, namely, they have close IC50 values against the TDP1 and CC50 values on one or several studied cell lines. Most of the compounds generally were more toxic for the HEK293FT and HeLa cell lines than for the HEK293A cell line (Table 1 and Figure 4). The cytotoxicity of the three leader compounds, 7g, 10a, and 7h, was quite high. […] Compound 10b was one of the least toxic among the ten tested compounds.
(§4) Cytotoxicity of the compounds was examined against human cell lines HEK293A (human embryonic kidney)—WT, TDP1 deficient (Tdp1-/-), PARP1 deficient (PARP1-/-), and HeLa (cervical cancer) using an EZ4U colorimetric test (Biomedica, Vienna, Austria). The HEK293A cell line was obtained from Thermo Fisher Scientific (Waltham, MA, USA), and the HeLa cell line was obtained from the Russian Cell Culture Collection (RCCC) Institute of Cytology RAS, St. Petersburg, Russia. The cells were grown in DMEM/F12 medium (Gibco, Thermo Fisher Scientific, Waltham, MA, USA), with 1x GlutaMAX (Gibco, Thermo Fisher Scientific, Waltham, MA, USA), 50 IU/mL penicillin, 50 μg/mL streptomycin (MP Biomedicals), and in the presence of 10% fetal bovine serum (Biolot, Saint-Petersburg, Russia) in a 5% CO2 atmosphere. Cells were grown in the presence of 1% DMSO in the control wells. After the formation of a 30–50% monolayer, the tested compounds were added to the medium, and the cell culture was monitored for 3 days. The values were normalized to their own control in each case. At least three independent experiments were carried out. The 50% cytotoxic concentration (CC50) was defined as the compound concentration that reduced the cell viability by 50% when compared to the untreated controls. The compound concentration that caused 50% cell growth inhibition was determined using OriginPro 8.6.0 software (OriginLab, Northampton, MA, USA). The measurements were carried out in three independent experiments.

[3] = Colorimetric cytotoxicity test, HEK293A PARP1-/-; format: cell-based; conditions: human, PARP1-/- HEK293A cells; PARP1-/- cell line, intrinsic cytotoxicity (Figure 6); read-out: CC50
Description: as §1, §2

[4] = Colorimetric cytotoxicity test, HEK293FT; format: cell-based; conditions: human, HEK293FT cells, intrinsic cytotoxicity
Description: as §3, §4

| Compound | Synergy with Tpc (in words) (HeLa cells; HeLa cells) | CC50 (HeLa cells; Homo sapiens, HeLa, 10a titrated with fixed 2 μM Tpc, read-out: CC50 of 10a with Tpc) | Effect of the joint presence of 10a and Tpc (in words) [1] | CC50 at 3 days [2] | CC50 at 3 days [3] | CC50 at 3 days [4] |
| --- | --- | --- | --- | --- | --- | --- |
| CC(=O)C1=C(O)C=C2Oc3c(C(=O)C[S+]([O-])c4nc5ccccc5s4)c(O)c(C)c(O)c3[C@@]2(C)C1=O (stereo partly drawn) [10a, (2R)-4-acetyl-10-[2-(1,3-benzothiazole-2-sulfinyl)acetyl]-5,11,13-trihydroxy-2,12-dimethyl-8-oxatricyclo[7.4.0.0^2,7]trideca-1(13),4,6,9,11-pentaen-3-one] | promising synergy | 3 µM | did not observe any effect | 15 ± 1 µM | 15 to 20 µM | 15 ± 2 µM |
| CC(=O)c1c(O)c(C)c(O)c2c1OC1=CC(=O)C(C(C)=O)C(=O)C12C (stereo not shown) [UA, usnic acid] |  |  |  | 20 ± 10 µM |  |  |
